In ChEMBL document CHEMBL1208720, “N-Benzylsalicylthioamides as novel compounds with promising antimycotic activity” (2010):
Values after ≈ are worked out from the molar mass of the structure shown.

System: Aspergillus fumigatus
Test: Antifungal activity against Aspergillus fumigatus 231 after 24 hrs by broth microdilution assay
Assay type: functional
Settings: Aspergillus fumigatus, 231, 24 h

| Compound | MIC [µM] |
| --- | --- |
| COc1ccc(C(=S)NCc2ccccc2)c(O)c1 | 250 (≈ 68.3 µg/mL) |
| Oc1ccc(Cl)cc1C(=S)NCc1ccc(F)cc1 | 31.2 (≈ 9.24 µg/mL) |
| Cc1ccc(CNC(=S)c2ccc(C)cc2O)cc1 | 125 (≈ 33.9 µg/mL) |
| Cc1ccc(C(=S)NCc2ccc(C(C)(C)C)cc2)c(O)c1 | > 500 |
| Oc1ccc(Cl)cc1C(=S)NCc1ccc(Cl)c(Cl)c1 | 3.9 (≈ 1.35 µg/mL) |

System: Lichtheimia corymbifera
Test: Antifungal activity against Absidia corymbifera 272 after 24 hrs by broth microdilution assay
Assay type: functional
Settings: Lichtheimia corymbifera, 272, 24 h

| Compound | MIC [µM] |
| --- | --- |
| COc1ccc(C(=S)NCc2ccccc2)c(O)c1 | 62.5 (≈ 17.1 µg/mL) |
| Oc1ccc(Cl)cc1C(=S)NCc1ccc(F)cc1 | 15.6 (≈ 4.62 µg/mL) |
| Cc1ccc(CNC(=S)c2ccc(C)cc2O)cc1 | 7.81 (≈ 2.12 µg/mL) |
| Cc1ccc(C(=S)NCc2ccc(C(C)(C)C)cc2)c(O)c1 | > 500 |
| Oc1ccc(Cl)cc1C(=S)NCc1ccc(Cl)c(Cl)c1 | 3.9 (≈ 1.35 µg/mL) |

System: Trichosporon asahii
Test: Antifungal activity against Trichosporon asahii 1188 after 48 hrs by broth microdilution assay
Assay type: functional
Settings: Trichosporon asahii, 1188, 48 h

| Compound | MIC [µM] |
| --- | --- |
| COc1ccc(C(=S)NCc2ccccc2)c(O)c1 | 250 (≈ 68.3 µg/mL) |
| Oc1ccc(Cl)cc1C(=S)NCc1ccc(F)cc1 | 15.6 (≈ 4.62 µg/mL) |
| Cc1ccc(CNC(=S)c2ccc(C)cc2O)cc1 | 62.5 (≈ 17 µg/mL) |
| Cc1ccc(C(=S)NCc2ccc(C(C)(C)C)cc2)c(O)c1 | > 500 |
| Oc1ccc(Cl)cc1C(=S)NCc1ccc(Cl)c(Cl)c1 | 7.81 (≈ 2.71 µg/mL) |

System: Candida tropicalis
Test: Antifungal activity against Candida tropicalis 159 after 24 hrs by broth microdilution assay
Assay type: functional
Settings: Candida tropicalis, 159, 24 h

| Compound | MIC [µM] |
| --- | --- |
| COc1ccc(C(=S)NCc2ccccc2)c(O)c1 | 250 (≈ 68.3 µg/mL) |
| Oc1ccc(Cl)cc1C(=S)NCc1ccc(F)cc1 | 62.5 (≈ 18.5 µg/mL) |
| Cc1ccc(CNC(=S)c2ccc(C)cc2O)cc1 | 125 (≈ 33.9 µg/mL) |
| Cc1ccc(C(=S)NCc2ccc(C(C)(C)C)cc2)c(O)c1 | > 500 |
| Oc1ccc(Cl)cc1C(=S)NCc1ccc(Cl)c(Cl)c1 | 31.2 (≈ 10.8 µg/mL) |

System: Pichia kudriavzevii
Test: Antifungal activity against Candida krusei E28 after 48 hrs by broth microdilution assay
Assay type: functional
Settings: Pichia kudriavzevii, E28, 48 h

| Compound | MIC [µM] |
| --- | --- |
| COc1ccc(C(=S)NCc2ccccc2)c(O)c1 | 250 (≈ 68.3 µg/mL) |
| Oc1ccc(Cl)cc1C(=S)NCc1ccc(F)cc1 | 15.6 (≈ 4.62 µg/mL) |
| Cc1ccc(CNC(=S)c2ccc(C)cc2O)cc1 | 125 (≈ 33.9 µg/mL) |
| Cc1ccc(C(=S)NCc2ccc(C(C)(C)C)cc2)c(O)c1 | > 500 |
| Oc1ccc(Cl)cc1C(=S)NCc1ccc(Cl)c(Cl)c1 | 15.6 (≈ 5.41 µg/mL) |

System: Nakaseomyces glabratus
Test: Antifungal activity against Candida glabrata 20/I after 24 hrs by broth microdilution assay
Assay type: functional
Settings: Nakaseomyces glabratus, 20/I, 24 h

| Compound | MIC [µM] |
| --- | --- |
| COc1ccc(C(=S)NCc2ccccc2)c(O)c1 | 500 (≈ 137 µg/mL) |
| Oc1ccc(Cl)cc1C(=S)NCc1ccc(F)cc1 | 62.5 (≈ 18.5 µg/mL) |
| Cc1ccc(CNC(=S)c2ccc(C)cc2O)cc1 | 125 (≈ 33.9 µg/mL) |
| Cc1ccc(C(=S)NCc2ccc(C(C)(C)C)cc2)c(O)c1 | > 500 |
| Oc1ccc(Cl)cc1C(=S)NCc1ccc(Cl)c(Cl)c1 | 31.2 (≈ 10.8 µg/mL) |

System: Pichia kudriavzevii
Test: Antifungal activity against Candida krusei E28 after 24 hrs by broth microdilution assay
Assay type: functional
Settings: Pichia kudriavzevii, E28, 24 h

| Compound | MIC [µM] |
| --- | --- |
| COc1ccc(C(=S)NCc2ccccc2)c(O)c1 | 250 (≈ 68.3 µg/mL) |
| Oc1ccc(Cl)cc1C(=S)NCc1ccc(F)cc1 | 7.81 (≈ 2.31 µg/mL) |
| Cc1ccc(CNC(=S)c2ccc(C)cc2O)cc1 | 62.5 (≈ 17 µg/mL) |
| Cc1ccc(C(=S)NCc2ccc(C(C)(C)C)cc2)c(O)c1 | > 500 |
| Oc1ccc(Cl)cc1C(=S)NCc1ccc(Cl)c(Cl)c1 | 3.9 (≈ 1.35 µg/mL) |

System: Candida albicans
Test: Antifungal activity against Candida albicans ATCC 44859 after 48 hrs by broth microdilution assay
Assay type: functional
Settings: Candida albicans, ATCC 44859, 48 h

| Compound | MIC [µM] |
| --- | --- |
| COc1ccc(C(=S)NCc2ccccc2)c(O)c1 | 250 (≈ 68.3 µg/mL) |
| Oc1ccc(Cl)cc1C(=S)NCc1ccc(F)cc1 | 125 (≈ 37 µg/mL) |
| Cc1ccc(CNC(=S)c2ccc(C)cc2O)cc1 | 250 (≈ 67.8 µg/mL) |
| Cc1ccc(C(=S)NCc2ccc(C(C)(C)C)cc2)c(O)c1 | > 500 |
| Oc1ccc(Cl)cc1C(=S)NCc1ccc(Cl)c(Cl)c1 | 31.2 (≈ 10.8 µg/mL) |

System: Lichtheimia corymbifera
Test: Antifungal activity against Absidia corymbifera 272 after 48 hrs by broth microdilution assay
Assay type: functional
Settings: Lichtheimia corymbifera, 272, 48 h

| Compound | MIC [µM] |
| --- | --- |
| COc1ccc(C(=S)NCc2ccccc2)c(O)c1 | 250 (≈ 68.3 µg/mL) |
| Oc1ccc(Cl)cc1C(=S)NCc1ccc(F)cc1 | 15.6 (≈ 4.62 µg/mL) |
| Cc1ccc(CNC(=S)c2ccc(C)cc2O)cc1 | 31.2 (≈ 8.48 µg/mL) |
| Cc1ccc(C(=S)NCc2ccc(C(C)(C)C)cc2)c(O)c1 | > 500 |
| Oc1ccc(Cl)cc1C(=S)NCc1ccc(Cl)c(Cl)c1 | 7.81 (≈ 2.71 µg/mL) |

System: Trichosporon asahii
Test: Antifungal activity against Trichosporon asahii 1188 after 24 hrs by broth microdilution assay
Assay type: functional
Settings: Trichosporon asahii, 1188, 24 h

| Compound | MIC [µM] |
| --- | --- |
| COc1ccc(C(=S)NCc2ccccc2)c(O)c1 | 250 (≈ 68.3 µg/mL) |
| Oc1ccc(Cl)cc1C(=S)NCc1ccc(F)cc1 | 7.81 (≈ 2.31 µg/mL) |
| Cc1ccc(CNC(=S)c2ccc(C)cc2O)cc1 | 31.2 (≈ 8.48 µg/mL) |
| Cc1ccc(C(=S)NCc2ccc(C(C)(C)C)cc2)c(O)c1 | > 500 |
| Oc1ccc(Cl)cc1C(=S)NCc1ccc(Cl)c(Cl)c1 | 3.9 (≈ 1.35 µg/mL) |

System: Trichophyton mentagrophytes
Test: Antifungal activity against Trichophyton mentagrophytes 445 after 72 hrs by broth microdilution assay
Assay type: functional
Settings: Trichophyton mentagrophytes, 445, 72 h

| Compound | MIC [µM] |
| --- | --- |
| COc1ccc(C(=S)NCc2ccccc2)c(O)c1 | 62.5 (≈ 17.1 µg/mL) |
| Oc1ccc(Cl)cc1C(=S)NCc1ccc(F)cc1 | 15.6 (≈ 4.62 µg/mL) |
| Cc1ccc(CNC(=S)c2ccc(C)cc2O)cc1 | 15.6 (≈ 4.24 µg/mL) |
| Cc1ccc(C(=S)NCc2ccc(C(C)(C)C)cc2)c(O)c1 | > 500 |
| Oc1ccc(Cl)cc1C(=S)NCc1ccc(Cl)c(Cl)c1 | 0.98 (≈ 0.34 µg/mL) |

System: Candida albicans
Test: Antifungal activity against Candida albicans ATCC 44859 after 24 hrs by broth microdilution assay
Assay type: functional
Settings: Candida albicans, ATCC 44859, 24 h

| Compound | MIC [µM] |
| --- | --- |
| COc1ccc(C(=S)NCc2ccccc2)c(O)c1 | 62.5 (≈ 17.1 µg/mL) |
| Oc1ccc(Cl)cc1C(=S)NCc1ccc(F)cc1 | 31.2 (≈ 9.24 µg/mL) |
| Cc1ccc(CNC(=S)c2ccc(C)cc2O)cc1 | 125 (≈ 33.9 µg/mL) |
| Cc1ccc(C(=S)NCc2ccc(C(C)(C)C)cc2)c(O)c1 | > 500 |
| Oc1ccc(Cl)cc1C(=S)NCc1ccc(Cl)c(Cl)c1 | 31.2 (≈ 10.8 µg/mL) |

System: Aspergillus fumigatus
Test: Antifungal activity against Aspergillus fumigatus 231 after 48 hrs by broth microdilution assay
Assay type: functional
Settings: Aspergillus fumigatus, 231, 48 h

| Compound | MIC [µM] |
| --- | --- |
| COc1ccc(C(=S)NCc2ccccc2)c(O)c1 | 500 (≈ 137 µg/mL) |
| Oc1ccc(Cl)cc1C(=S)NCc1ccc(F)cc1 | 15.6 (≈ 4.62 µg/mL) |
| Cc1ccc(CNC(=S)c2ccc(C)cc2O)cc1 | 500 (≈ 136 µg/mL) |
| Cc1ccc(C(=S)NCc2ccc(C(C)(C)C)cc2)c(O)c1 | > 500 |
| Oc1ccc(Cl)cc1C(=S)NCc1ccc(Cl)c(Cl)c1 | 15.6 (≈ 5.41 µg/mL) |

System: Nakaseomyces glabratus
Test: Antifungal activity against Candida glabrata 20/I after 48 hrs by broth microdilution assay
Assay type: functional
Settings: Nakaseomyces glabratus, 20/I, 48 h

| Compound | MIC [µM] |
| --- | --- |
| COc1ccc(C(=S)NCc2ccccc2)c(O)c1 | 500 (≈ 137 µg/mL) |
| Oc1ccc(Cl)cc1C(=S)NCc1ccc(F)cc1 | 125 (≈ 37 µg/mL) |
| Cc1ccc(CNC(=S)c2ccc(C)cc2O)cc1 | 500 (≈ 136 µg/mL) |
| Cc1ccc(C(=S)NCc2ccc(C(C)(C)C)cc2)c(O)c1 | > 500 |
| Oc1ccc(Cl)cc1C(=S)NCc1ccc(Cl)c(Cl)c1 | 31.2 (≈ 10.8 µg/mL) |

System: Trichophyton mentagrophytes
Test: Antifungal activity against Trichophyton mentagrophytes 445 after 120 hrs by broth microdilution assay
Assay type: functional
Settings: Trichophyton mentagrophytes, 445, 120 h

| Compound | MIC [µM] |
| --- | --- |
| COc1ccc(C(=S)NCc2ccccc2)c(O)c1 | 62.5 (≈ 17.1 µg/mL) |
| Oc1ccc(Cl)cc1C(=S)NCc1ccc(F)cc1 | 15.6 (≈ 4.62 µg/mL) |
| Cc1ccc(CNC(=S)c2ccc(C)cc2O)cc1 | 15.6 (≈ 4.24 µg/mL) |
| Cc1ccc(C(=S)NCc2ccc(C(C)(C)C)cc2)c(O)c1 | > 500 |
| Oc1ccc(Cl)cc1C(=S)NCc1ccc(Cl)c(Cl)c1 | 0.98 (≈ 0.34 µg/mL) |

System: Candida tropicalis
Test: Antifungal activity against Candida tropicalis 159 after 48 hrs by broth microdilution assay
Assay type: functional
Settings: Candida tropicalis, 159, 48 h

| Compound | MIC [µM] |
| --- | --- |
| COc1ccc(C(=S)NCc2ccccc2)c(O)c1 | 250 (≈ 68.3 µg/mL) |
| Oc1ccc(Cl)cc1C(=S)NCc1ccc(F)cc1 | 125 (≈ 37 µg/mL) |
| Cc1ccc(CNC(=S)c2ccc(C)cc2O)cc1 | 500 (≈ 136 µg/mL) |
| Cc1ccc(C(=S)NCc2ccc(C(C)(C)C)cc2)c(O)c1 | > 500 |
| Oc1ccc(Cl)cc1C(=S)NCc1ccc(Cl)c(Cl)c1 | 62.5 (≈ 21.7 µg/mL) |
